In patent US20240226034A1, “Use of Terpenoids and Salicylates as Anesthetics and Analgesics” (THE REGENTS OF THE UNIVERSITY OF CALIFORNIA, priority 2021, published 2024):

Assays:
[1] = target: T1, Nav1.2 channels (human SCN2A) (Homo sapiens, UniProt Q99250); test: Two-electrode voltage clamp of Nav1.2 channels expressed in Xenopus oocytes; type: cell-based; settings: for inhibition of Nav1.2 channels: at the mean plasma concentration during IV infusion anesthesia in rats; for Hill coefficient, Nav1.2 channel inhibition: dose-response model; for effect on Nav1.2 channel currents: dose-response, oocytes
T1 construct: expressed in transfected cells; host or cells: Xenopus laevis oocytes (RNA injection)
Text: (§1) Ovaries removed from sexually mature Xenopus laevis frogs were bluntly dissected to remove surrounding connective tissue and then digested with 0.2% type I collagenase in an oocyte Ringer's solution. Once free from thecal cells and connective tissue, individual oocytes were rinsed, sorted, and stored in a modified Barth's solution (R. Brosnan et al., Anesth. Analg. 103, (2006): 86; L. Yang, P. S. Milutinovic, R. J. Brosnan, E. I. Eger 2nd, & J. M. Sonner, Anesth. Analg. 105, (2007): 393; R. J. Brosnan, F. B. Fukushima, & T. L. Pham, Anaesth. Analg. 44, (2017): 577; A. Cenani, R. J. Brosnan, & H. K. Knych, Pharmacology 103, (2019): 10).
(§2) Heteromeric GABAA receptors were expressed in oocytes by blind intranuclear injection of 1 ng DNA encoding the human al (GABRA1) and rat B2 (GABRB2) subunits in a 1:1 ratio. NMDA receptors were expressed by intracytoplasmic injection of 5 ng RNA encoding rat NR1 (GRIN1) and rat NR2a (GRIN2A) subunits in a 1:1 ratio. Nax 1.2 channels were expressed by injection of 5 ng RNA encoding the human SCN2A gene.
Studies of the Nav1.2 channels were carried out Using the same equipment as above, oocytes were perfused with FR and clamped at −80 mV transmembrane potential. Every 2 min, a 6-s step potential to 0 mV was applied to open the channel; this was repeated until baseline responses stabilized. Next, FR containing the test drug was perfused for 2 min followed by another 6-s step voltage change to 0 mV. Finally, FR was perfused for 5 min to wash out the drug, and another 6-s step clamp to 0 mV was applied to confirm that post-drug currents had returned to within 10% of pre-drug values.
(§3) The change in whole cell peak current before and during agonist exposure (for GABAA and NMDA receptors) or before and during the voltage step clamp (for Nav1.2 channels) was measured in the tracings immediately before and during drug exposure. Percent change in current was calculated as follows:
(§4) [formula] • where IB is the baseline pre-drug current peak and ID is the drug current peak. For each drug and ion channel, data were fit to a Hill equation using nonlinear regression with sequential quadratic programming and bootstrap estimates of parameter standard errors (SPSS, v. 27; IBM, Armonk, NY, USA). In the model, maximum drug inhibition (Imax) was constrained to not be less than −100%. Initial parameter estimates were seeded with values based on visual inspection of respective dose-response curves in order to facilitate model convergence.

[2] = Plasma concentration during IV infusion anesthesia (LC-MS); type: in vivo, rat
Method: (§5) Lateral tail veins were catheterized in eight, 70-day-old, male, Sprague Dawley rats weighing 309±6 g. A 10% solution of L-carvone or methyl salicylate in 20% […]® was each administered IV to 8 rats (4 animals per drug treatment) by using a syringe pump at a rate of 12 mL/h. When rats lost their righting reflex and were unresponsive to a tail clamp, a midline laparotomy was performed, the abdominal aorta catheterized, and the rat exsanguinated. Blood was collected in a heparin tube and centrifuged; plasma was separated and stored in cryogenic tubes at −80° C. until analysis.
Serum calibrations were prepared by dilution of working standard solutions of methyl salicylate and L-carvone with drug-free rat serum (Innovative Research, Novi, MI, USA) to concentrations ranging from 0.05 to 500 μg/mL. Calibration curves and negative control samples were prepared fresh for each quantitative assay. In addition, quality control samples (drug-free rat serum fortified with analyte at 3-4 concentrations within the standard curve) were included as an additional check of accuracy.
Prior to analysis, 100 μL of each serum sample was diluted with 100 μL of acetonitrile (ACN):1 M acetic acid (9:1, v:v) and 50 μL of methanol to precipitate proteins. The samples were vortexed for 2 min to mix, refrigerated for 20 min, vortexed for an additional 1 min, centrifuged (4,300 rpm/3, 102 g) for 10 min at 4 °C, and 10 μL injected into the liquid chromatography tandem mass spectrometry system.
Quantitative analysis was performed on an LTQ XL Orbitrap mass spectrometer (Thermo Scientific, San Jose, CA, USA) coupled with a Waters Acquity UPLC (Milford, MA, USA). […] Detection and quantification were conducted using full-scan accurate mass from 145 to 160 (m/z). […]
The precision and accuracy of the assay was determined by assaying quality control samples in replicates (n=6). […] The technique was optimized to provide limits of quantitation of 0.5 μg/mL and 0.05 μg/mL and limits of detection of approximately 0.1 μg/mL and 0.025 μg/mL for methyl salicylate and L-carvone, respectively.

[3] = target: T2, NMDA receptors (rat NR1 GRIN1 and rat NR2a GRIN2A subunits) (Rattus norvegicus, UniProt P35439+Q00959); test: Two-electrode voltage clamp of NMDA receptors expressed in Xenopus oocytes; type: cell-based; settings: for inhibition of NMDA receptors: at the mean plasma concentration during IV infusion anesthesia in rats; for Hill coefficient, NMDA receptor inhibition: dose-response model; for effect on NMDA receptor currents: dose-response, oocytes
T2 construct: expressed in transfected cells; host or cells: Xenopus laevis oocytes (intracytoplasmic RNA injection)
Text: as §1, §2
Studies of NMDA receptors were carried out using equipment identical to that described for GABAA receptors. Transmembrane potential was clamped at −80 mV, and oocytes were perfused with a barium-containing FR solution (Ba-FR) which substituted equimolar BaCl2 for calcium salts and contained 0.1 mM EGTA as a calcium chelator. After 5 min, the perfusate was changed for 30 s to barium FR containing 0.1 mM glutamate plus 0.01 mM glycine (Ba-FREG) as receptor agonists which produce an NMDA receptor current greater than 99% of the maximal response. Next, Ba-FR containing the study drug was perfused for 5 min and then switched to Ba-FREG containing the same test article for 30 s. The drug was then washed out with a 5-min perfusion of Ba-FR followed by a 30-s exposure to Ba-FREG to confirm post-drug currents had returned to within 10% of pre-drug values.
as §3, §4

Sprague Dawley rats = test: Continuous IV infusion anesthesia; type: in vivo, rat; settings: for time after start of injection to loss-of-righting and absent tail clamp response: continuous 0.2 mL/min IV infusion of 10% emulsion
Method: as §5

T1 sequence (Q99250 whole entry, the tested form may be a part): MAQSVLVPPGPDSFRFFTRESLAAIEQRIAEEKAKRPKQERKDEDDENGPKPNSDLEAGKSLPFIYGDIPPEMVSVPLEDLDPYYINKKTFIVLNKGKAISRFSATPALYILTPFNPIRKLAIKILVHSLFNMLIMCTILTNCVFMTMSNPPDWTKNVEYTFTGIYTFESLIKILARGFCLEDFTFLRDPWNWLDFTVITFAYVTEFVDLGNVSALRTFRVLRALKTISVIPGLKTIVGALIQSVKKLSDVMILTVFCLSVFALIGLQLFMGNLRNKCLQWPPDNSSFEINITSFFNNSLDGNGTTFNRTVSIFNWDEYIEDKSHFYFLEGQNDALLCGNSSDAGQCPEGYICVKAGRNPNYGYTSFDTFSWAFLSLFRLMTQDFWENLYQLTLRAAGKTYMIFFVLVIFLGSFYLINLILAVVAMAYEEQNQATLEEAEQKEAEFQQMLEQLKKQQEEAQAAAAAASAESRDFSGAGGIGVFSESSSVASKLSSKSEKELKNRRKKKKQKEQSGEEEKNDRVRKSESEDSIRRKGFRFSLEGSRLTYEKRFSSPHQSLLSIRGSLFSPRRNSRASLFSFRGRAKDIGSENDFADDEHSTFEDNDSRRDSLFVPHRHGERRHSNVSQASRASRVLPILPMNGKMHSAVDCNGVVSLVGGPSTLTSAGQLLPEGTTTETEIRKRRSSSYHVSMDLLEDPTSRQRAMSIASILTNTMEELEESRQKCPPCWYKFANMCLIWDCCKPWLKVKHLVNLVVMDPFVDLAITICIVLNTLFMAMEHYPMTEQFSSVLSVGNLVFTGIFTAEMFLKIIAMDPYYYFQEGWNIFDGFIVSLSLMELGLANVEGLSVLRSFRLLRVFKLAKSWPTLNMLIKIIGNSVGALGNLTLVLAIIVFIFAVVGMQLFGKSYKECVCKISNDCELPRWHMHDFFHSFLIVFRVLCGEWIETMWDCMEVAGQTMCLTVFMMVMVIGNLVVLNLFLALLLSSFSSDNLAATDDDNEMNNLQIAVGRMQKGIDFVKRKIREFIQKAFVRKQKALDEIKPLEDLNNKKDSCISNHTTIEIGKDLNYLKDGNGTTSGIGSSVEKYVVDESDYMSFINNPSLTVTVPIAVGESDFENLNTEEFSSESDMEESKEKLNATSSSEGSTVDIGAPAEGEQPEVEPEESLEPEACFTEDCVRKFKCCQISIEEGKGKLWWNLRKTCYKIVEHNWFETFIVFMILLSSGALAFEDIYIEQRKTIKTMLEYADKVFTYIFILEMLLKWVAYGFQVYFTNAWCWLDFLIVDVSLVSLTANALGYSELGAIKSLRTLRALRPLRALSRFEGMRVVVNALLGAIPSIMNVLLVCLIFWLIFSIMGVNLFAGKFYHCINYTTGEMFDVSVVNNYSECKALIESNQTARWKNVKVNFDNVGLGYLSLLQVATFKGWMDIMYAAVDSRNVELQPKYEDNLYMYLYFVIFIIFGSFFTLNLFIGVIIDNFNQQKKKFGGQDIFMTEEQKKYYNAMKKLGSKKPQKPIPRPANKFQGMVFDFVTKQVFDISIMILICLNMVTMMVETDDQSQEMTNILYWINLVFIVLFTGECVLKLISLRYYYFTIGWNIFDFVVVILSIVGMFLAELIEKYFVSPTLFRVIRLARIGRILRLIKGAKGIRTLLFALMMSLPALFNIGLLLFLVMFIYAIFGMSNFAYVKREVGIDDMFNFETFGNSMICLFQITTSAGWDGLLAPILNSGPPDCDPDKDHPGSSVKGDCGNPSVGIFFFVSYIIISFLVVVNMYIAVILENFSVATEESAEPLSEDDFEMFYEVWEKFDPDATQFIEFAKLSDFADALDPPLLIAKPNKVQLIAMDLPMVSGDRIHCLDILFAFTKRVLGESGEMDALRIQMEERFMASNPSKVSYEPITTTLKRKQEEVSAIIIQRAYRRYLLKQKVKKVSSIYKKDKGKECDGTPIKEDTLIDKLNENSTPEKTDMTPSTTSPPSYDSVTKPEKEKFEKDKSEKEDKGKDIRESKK
T2 sequence (Q00959 20-1464 limits assumed, other chains not shown): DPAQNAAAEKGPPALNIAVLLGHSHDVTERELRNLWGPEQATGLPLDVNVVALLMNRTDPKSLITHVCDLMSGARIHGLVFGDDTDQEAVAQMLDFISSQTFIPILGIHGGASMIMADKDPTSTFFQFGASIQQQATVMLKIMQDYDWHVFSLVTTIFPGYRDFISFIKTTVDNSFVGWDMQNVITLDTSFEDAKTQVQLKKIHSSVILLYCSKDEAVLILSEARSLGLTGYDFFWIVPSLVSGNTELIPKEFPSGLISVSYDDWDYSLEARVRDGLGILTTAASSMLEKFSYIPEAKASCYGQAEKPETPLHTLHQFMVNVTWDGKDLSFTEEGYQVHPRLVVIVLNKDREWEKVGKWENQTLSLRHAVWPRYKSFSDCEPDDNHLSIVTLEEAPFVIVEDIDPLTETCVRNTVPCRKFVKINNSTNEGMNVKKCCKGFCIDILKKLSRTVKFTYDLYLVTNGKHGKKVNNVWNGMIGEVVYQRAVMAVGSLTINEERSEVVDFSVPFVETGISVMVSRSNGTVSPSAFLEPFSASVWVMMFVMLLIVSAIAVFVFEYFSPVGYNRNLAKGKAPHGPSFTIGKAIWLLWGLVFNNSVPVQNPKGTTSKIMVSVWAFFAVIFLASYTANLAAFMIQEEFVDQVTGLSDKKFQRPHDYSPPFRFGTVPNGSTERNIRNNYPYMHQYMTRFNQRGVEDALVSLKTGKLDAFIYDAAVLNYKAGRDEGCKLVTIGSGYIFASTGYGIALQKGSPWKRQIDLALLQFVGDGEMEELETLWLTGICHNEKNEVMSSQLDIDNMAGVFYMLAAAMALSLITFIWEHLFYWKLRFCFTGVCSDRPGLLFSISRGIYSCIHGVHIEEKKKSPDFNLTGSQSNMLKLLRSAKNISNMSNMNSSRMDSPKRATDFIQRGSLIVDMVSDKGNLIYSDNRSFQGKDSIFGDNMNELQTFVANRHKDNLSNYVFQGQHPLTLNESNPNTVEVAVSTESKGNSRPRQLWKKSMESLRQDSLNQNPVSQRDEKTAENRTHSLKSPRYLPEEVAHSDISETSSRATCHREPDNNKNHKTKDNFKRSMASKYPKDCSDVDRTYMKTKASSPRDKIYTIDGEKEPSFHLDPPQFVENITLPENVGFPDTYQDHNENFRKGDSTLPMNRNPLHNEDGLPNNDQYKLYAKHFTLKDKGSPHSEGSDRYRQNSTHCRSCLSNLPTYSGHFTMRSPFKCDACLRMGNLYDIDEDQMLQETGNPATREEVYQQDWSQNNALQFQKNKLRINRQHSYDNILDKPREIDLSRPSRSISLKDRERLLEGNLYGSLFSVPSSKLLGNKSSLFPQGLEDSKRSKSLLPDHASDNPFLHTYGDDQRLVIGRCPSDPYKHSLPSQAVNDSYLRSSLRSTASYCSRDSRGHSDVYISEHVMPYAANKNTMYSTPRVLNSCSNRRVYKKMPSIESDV

Compound	inhibition of Nav1.2 channels [1] [%]	greater potency for Nav1.2 channels than for NMDA receptors ([1]; comparison of IC50, FIG. 4) [%]	Hill coefficient, Nav1.2 channel inhibition [1]	effect on Nav1.2 channel currents [1]	mean plasma concentration (±SEM) during IV infusion ([2]; male, Sprague Dawley, rat, in vivo, iv) [µM]	inhibition of NMDA receptors [3] [%]	Hill coefficient, NMDA receptor inhibition [3]	effect on NMDA receptor currents [3]	time after start of injection to loss-of-righting and absent tail clamp response (Sprague Dawley rats) [min]	excitement after injection (Sprague Dawley rats; rat, in vivo, iv)	tonic or clonic muscle activity (Sprague Dawley rats; rat, in vivo, iv)	Nav1.2 channel current at highest concentration ([1]; 10 mM drug)	plasma concentration relative to that for methyl salicylate ([2]; at the time general anesthesia was achieved) [times]	mean plasma concentration (±SEM) during IV infusion ([2]; rats N=4, at loss of righting reflex and tail clamp response) [µM]	NMDA receptor current at highest concentration ([3]; 10 mM drug)	greater inhibition of NMDA receptors and Nav1.2 channels than at the methyl salicylate plasma concentrations ([3]; at L-carvone plasma concentrations during anesthesia, NMDA and Nav1.2)	tonic or clonic muscle activity (Sprague Dawley rats; continuous 0.2 mL/min IV infusion)
COC(=O)c1ccccc1O [methyl salicylate]	78	50	greater than 1	dose-dependently inhibited	2700 ± 400	53	~1	dose-dependently inhibited	3 to 4	transient excitement in half of the animals	No tonic or clonic muscle activity	–	–	–	–	–	–
L-carvone	90	–	~1	dose-dependent inhibition	–	71	~1	dose-dependent inhibition	2 to 4	–	–	near or complete loss of channel currents	3	7900 ± 3000	near or complete loss of channel currents	15-30%	tonic muscle contractions suggestive of seizure
